Test results: article PMC9516243, “Design of stapled peptide-based PROTACs for MDM2/MDMX atypical degradation and tumor suppression” (Theranostics, 2022)
Positions of bridges follow the written chain, without caps; N, C: chain ends. Non-standard residues stand in square brackets, D forms with d. Residues, ends and D or L forms follow the SMILES beside them. Hyp = O=C(O)[C@@H]1C[C@@H](O)CN1; R8 = C=CCCCCCC[C@@](C)(N)C(=O)O; hLeu = CC(C)CC[C@H](N)C(=O)O; S5 = C=CCCC[C@](C)(N)C(=O)O; PEG3 = NCCOCCOCCOCCC(=O)O; PEG2 = NCCOCCOCCC(=O)O; AEA = NCCOCC(=O)O

Experiments:
[1] = α-Helicity by CD spectroscopy; format: physicochemical; settings: PB pH 7.2, 10-50 µM peptide, 20°C, calculated from [θ]222
Experimental: Peptides were dissolved in PB (pH = 7.2) to concentrations ranging from 10 to 50 µM. CD spectra were obtained on a Jasco J-715 spectropolarimeter at 20°C. The spectra were collected using a 0.1 cm path length quartz cuvette with the following measurement parameters: wavelength, 185-255 nm; step resolution, 0.1 nm; speed, 20 nm/min; accumulations, 6; bandwidth, 1 nm. The helical content of each peptide was calculated as reported previously.

[2] = circular dichroism; settings: phosphate buffer (PB); pH 7.2; 20 °C; 10-50 uM
[3] = tested on: HCT116 p53^+/+ cells; test: Cell viability assay (CCK-8); format: cell-based, human; settings: 72 h
Experimental: (§1) The human colon carcinoma cell line HCT116 p53^+/+ was obtained from the Cell Bank of the Chinese Academy of Sciences (Shanghai, China). HCT116 p53^-/- cells were generously provided by Prof. Vogelstein of Johns Hopkins University. Both cell lines were cultured in McCoy's 5A medium (Gibco, USA) containing 10% FBS, 100 units/ml penicillin, and 100 μg/ml streptomycin at 37 °C in a humidified incubator containing 5% CO2. Cell viability was measured using a Cell Counting Kit-8 (CCK-8) (Dojindo, Kumamoto, Japan) according to the manufacturer's instructions. In brief, the cells (5 × 10^3 cells/well in […] medium) were cultured for 24 h in 96-well microplates in a humidified 5% CO2 incubator at 37 °C and then treated with varying concentrations of compounds or 0.1% DMSO vehicle control.

[4] = tested on: HCT116 p53^-/- cells; test: Cell viability assay (CCK-8); format: cell-based, human; settings: 72 h
Experimental: as §1

| Compound | α-helicity (%) [1] [%] | IC50 [3] [µM] | IC50 [4] [µM] | helicity [2] [%] |
| --- | --- | --- | --- | --- |
| CC(=O)N[C@H](C(=O)N[C@@H](CO)C(=O)N[C@@H](Cc1ccccc1)C(=O)N[C@@]1(C)CCCC=CCCC[C@@](C)(C(=O)N[C@@H](CC(C)C)C(=O)N[C@@H](CC(C)C)C(=O)N[C@@H](CO)C(N)=O)NC(=O)[C@H](Cc2c[nH]c3ccccc23)NC(=O)[C@H](Cc2ccc(O)cc2)NC(=O)[C@H](CCC(=O)O)NC1=O)[C@@H](C)O [SPMI1] (Ac-TSF[S5]EYW[S5]LLS-NH2; staple 4-8) | 4 | > 100 | > 100 | 4 |
| CC(=O)N[C@H](C(=O)N[C@@H](CO)C(=O)N[C@@H](Cc1ccccc1)C(=O)N[C@@]1(C)CCCC=CCCC[C@@](C)(C(=O)N[C@@H](CC(C)C)C(=O)N[C@@H](CC(C)C)C(=O)N[C@@H](CO)C(=O)NCCOCC(=O)N[C@@H](CC(C)C)C(=O)N[C@@H](C)C(=O)N2C[C@H](O)C[C@H]2C(=O)N[C@@H](Cc2ccc(O)cc2)C(=O)N[C@@H](CCC(C)C)C(=O)N2CCC[C@H]2C(N)=O)NC(=O)[C@H](Cc2c[nH]c3ccccc23)NC(=O)[C@H](Cc2ccc(O)cc2)NC(=O)[C@H](CCC(=O)O)NC1=O)[C@@H](C)O [SPMI-HIF1-1] (Ac-TSF[S5]EYW[S5]LLS[AEA]LA[Hyp]Y[hLeu]P-NH2; staple 4-8) | 3 | 82.1 | > 100 | 3 |
| CC(=O)N[C@H](C(=O)N[C@@H](CO)C(=O)N[C@@H](Cc1ccccc1)C(=O)N[C@@]1(C)CCCC=CCCC[C@@](C)(C(=O)N[C@@H](CC(C)C)C(=O)N[C@@H](CC(C)C)C(=O)N[C@@H](CO)C(=O)NCCOCCOCCC(=O)N[C@@H](CC(C)C)C(=O)N[C@@H](C)C(=O)N2C[C@H](O)C[C@H]2C(=O)N[C@@H](Cc2ccc(O)cc2)C(=O)N[C@@H](CCC(C)C)C(=O)N2CCC[C@H]2C(N)=O)NC(=O)[C@H](Cc2c[nH]c3ccccc23)NC(=O)[C@H](Cc2ccc(O)cc2)NC(=O)[C@H](CCC(=O)O)NC1=O)[C@@H](C)O [SPMI-HIF1-2] (Ac-TSF[S5]EYW[S5]LLS[PEG2]LA[Hyp]Y[hLeu]P-NH2; staple 4-8) | 2 | 85.1 | > 100 | 2 |
| CC(=O)N[C@H](C(=O)N[C@@H](CO)C(=O)N[C@@H](Cc1ccccc1)C(=O)N[C@@H](C)C(=O)N[C@@H](CCC(=O)O)C(=O)N[C@@H](Cc1ccc(O)cc1)C(=O)N[C@@H](Cc1c[nH]c2ccccc12)C(=O)N[C@@H](C)C(=O)N[C@@H](CC(C)C)C(=O)N[C@@H](CC(C)C)C(=O)N[C@@H](CO)C(=O)NCCOCCOCCOCCC(=O)N[C@@H](CC(C)C)C(=O)N[C@@H](C)C(=O)N1C[C@H](O)C[C@H]1C(=O)N[C@@H](Cc1ccc(O)cc1)C(=O)N[C@@H](CCC(C)C)C(=O)N1CCC[C@H]1C(N)=O)[C@@H](C)O [PMI-HIF1-3] | 17 |  |  | 17 |
| CC(=O)N[C@H](C(=O)N[C@@H](CO)C(=O)N[C@@H](Cc1ccccc1)C(=O)N[C@@H](C)C(=O)N[C@@H](CCC(=O)O)C(=O)N[C@@H](Cc1ccc(O)cc1)C(=O)N[C@@H](Cc1c[nH]c2ccccc12)C(=O)N[C@@H](C)C(=O)N[C@@H](CC(C)C)C(=O)N[C@@H](CC(C)C)C(=O)N[C@@H](CO)C(=O)NCCOCCOCCC(=O)N[C@@H](CC(C)C)C(=O)N[C@@H](C)C(=O)N1C[C@H](O)C[C@H]1C(=O)N[C@@H](Cc1ccc(O)cc1)C(=O)N[C@@H](CCC(C)C)C(=O)N1CCC[C@H]1C(N)=O)[C@@H](C)O [PMI-HIF1-2] | 17 |  |  | 17 |

More lines, main results first:

| α-helicity (%) [1] [%] | IC50 [3] [µM] | IC50 [4] [µM] | Compound | helicity [2] [%] |
| --- | --- | --- | --- | --- |
| 27 | 57.7 | > 100 | CC(=O)N[C@H](C(=O)N[C@@H](CO)C(=O)N[C@@H](Cc1ccccc1)C(=O)N[C@@]1(C)CCCC=CCCC[C@@](C)(C(=O)N[C@@H](CC(C)C)C(=O)N[C@@H](CC(C)C)C(=O)N[C@@H](CO)C(=O)NCCOCCOCCOCCC(=O)N[C@@H](CC(C)C)C(=O)N[C@@H](C)C(=O)N2C[C@H](O)C[C@H]2C(=O)N[C@@H](Cc2ccc(O)cc2)C(=O)N[C@@H](CCC(C)C)C(=O)N2CCC[C@H]2C(N)=O)NC(=O)[C@H](Cc2c[nH]c3ccccc23)NC(=O)[C@H](Cc2ccc(O)cc2)NC(=O)[C@H](CCC(=O)O)NC1=O)[C@@H](C)O [SPMI-HIF1-3] (Ac-TSF[S5]EYW[S5]LLS[PEG3]LA[Hyp]Y[hLeu]P-NH2; staple 4-8) | 27 |
| 24 | 15.2 | > 100 | CC(=O)N[C@H](C(=O)N[C@@H](CO)C(=O)N[C@@H](Cc1ccccc1)C(=O)N[C@]1(C)CCCCCCC=CCCC[C@@](C)(C(=O)NCCOCCOCCOCCC(=O)N[C@@H](CC(C)C)C(=O)N[C@@H](C)C(=O)N2C[C@H](O)C[C@H]2C(=O)N[C@@H](Cc2ccc(O)cc2)C(=O)N[C@@H](CCC(C)C)C(=O)N2CCC[C@H]2C(N)=O)NC(=O)[C@H](CC(C)C)NC(=O)[C@H](CC(C)C)NC(=O)[C@H](C)NC(=O)[C@H](Cc2c[nH]c3ccccc23)NC(=O)[C@H](Cc2ccc(O)cc2)NC(=O)[C@H](CCC(=O)O)NC1=O)[C@@H](C)O [SPMI-HIF2-3] (Ac-TSF[R8]EYWALL[S5][PEG3]LA[Hyp]Y[hLeu]P-NH2; staple 4-11) | 24 |
| 37 | 10.8 | > 100 | CC(=O)N[C@H](C(=O)N[C@@H](CO)C(=O)N[C@@H](Cc1ccccc1)C(=O)N[C@]1(C)CCCCCCC=CCCC[C@@](C)(C(=O)NCCOCCOCCC(=O)N[C@@H](CC(C)C)C(=O)N[C@@H](C)C(=O)N2C[C@H](O)C[C@H]2C(=O)N[C@@H](Cc2ccc(O)cc2)C(=O)N[C@@H](CCC(C)C)C(=O)N2CCC[C@H]2C(N)=O)NC(=O)[C@H](CC(C)C)NC(=O)[C@H](CC(C)C)NC(=O)[C@H](C)NC(=O)[C@H](Cc2c[nH]c3ccccc23)NC(=O)[C@H](Cc2ccc(O)cc2)NC(=O)[C@H](CCC(=O)O)NC1=O)[C@@H](C)O [SPMI-HIF2-2] (Ac-TSF[R8]EYWALL[S5][PEG2]LA[Hyp]Y[hLeu]P-NH2; staple 4-11) | 37 |
